Our source for the IC50 and Ki values is patent EP1082127B1 (WARNER-LAMBERT COMPANY LLC, priority 1998, dated 1999).

The target of experiment [1] is T1, ICE (Homo sapiens, UniProt P29466).
T1 sequence (P29466 120-297 limits assumed): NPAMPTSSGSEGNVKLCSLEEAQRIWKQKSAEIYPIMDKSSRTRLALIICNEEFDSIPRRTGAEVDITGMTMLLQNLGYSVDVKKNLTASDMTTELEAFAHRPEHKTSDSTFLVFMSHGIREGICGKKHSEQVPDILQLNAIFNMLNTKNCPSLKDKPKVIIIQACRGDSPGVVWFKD
T1 sequence (P29466 317-404 limits assumed): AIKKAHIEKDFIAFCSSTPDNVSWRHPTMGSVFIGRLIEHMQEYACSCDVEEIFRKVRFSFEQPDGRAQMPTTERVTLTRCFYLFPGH
Briefly: ICE Colorimetric Dose-Response (IC50) Assay. The settings on record: 60 minutes preincubation, 50 µM Ac-Tyr-Val-Ala-Asp-pNA, 25°C. The experiment is classed as biochemical. The method, then: Diluted inhibitor stocks are prepared by two-fold serial dilution from a primary stock whose concentration is selected (based on screening results or on prior attempts at IC50 evaluation) to achieve approximately 95% inhibition in the most concentrated well. Aliquots of each dilution are transferred to a microtitre plate in triplicate.
ICE enzyme is diluted to approximately 24 nM in HGE buffer (100 mM Hepes pH 7.5, 0.5 mM EDTA, 20% glycerol, 0.1% Bovine Serum Albumin (BSA), and activated by adding dithiothreitol (DTT) to a final concentration of 5 mM. The activated enzyme is then aliquoted into wells containing inhibitor or vehicle, and the plate is preincubated for 60 minutes at ambient temperature. Substrate (Ac-Tyr-Val-Ala-Asp-pNA) is added to each well to a final concentration of 50 µM, and plates are placed in the microtitre plate-reader thermostated to 25°C. Beginning 5 minutes after addition of substrate, absorbance (405 nm) of wells is monitored for 1 hour, and activity is calculated as the mean rate of change in absorbance during this interval.

Experiment [2] has as its system IL-1β production in human peripheral blood mononuclear cells (PBMCs). The experiment in a line: PBMC Cellular Assay - IC50 Determinations (LPS-stimulated IL-1β production, ELISA). It counts as cell-based. The settings on record: human PBMCs stimulated overnight with 10 ng/mL LPS, mature IL-1β by ELISA. An excerpt:
Further evidence that compounds of Formula I are inhibitors of ICE is provided by their ability to inhibit IL-1β production in human peripheral blood mononuclear cells (PBMCs) as described herein. PBMCs are isolated from heparinized blood by centrifugation over a ficoll cushion, then washed three times with phosphate-buffered saline. PBMCs are suspended in a medium containing RPMI 1640 with glutamine, penicillin, streptomycin, and 2% human AB serum, then plated at 10^6 cells per well in 96-well flat bottom plates. PBMCs are stimulated overnight with 10 ng/mL of lipopolysaccharide (LPS, E. coli strain 0111:B4; Calbiochem) in the presence or absence of a compound of Formula I. Medium is harvested, and the level of mature IL-1β was determined using an ELISA kit from R&D Systems. Cells were cultured for an additional 4 hours in the presence of 3-(4,5-dimethylthiazol-2-yl)-2,5-diphenyltetrazolium bromide (MTT) to determine viability.
A general note: ELISA stands for enzyme-linked immunosorbent assay.

Experiment [3] has as its target T1, ICE. The experiment in a line: ICE inhibition, Ki determination (fluorogenic substrate Ac-Tyr-Val-Ala-Asp-AMC). It counts as biochemical. The settings on record: 15 µM Ac-Tyr-Val-Ala-Asp-AMC, 0.5 nM enzyme, 30°C, reversible competitive model. The method, then:
Serial dilutions of each compound of the invention are prepared using an initial 8-fold dilution of a DMSO stock into HGE (100 mM HEPES, 20% glycerol v/v, 0.5 mM EDTA), followed by seven serial 2-fold dilutions into HGE + 12.5% DMSO. Ten microliters of diluted stocks or of vehicle (HGE + 12.5% DMSO) are placed in triplicate onto a 96-well microtiter plate. Enzyme is diluted into assay buffer (HGE, 5 mM DTT, 15 µM Ac-Tyr-Val-Ala-Asp-AMC; 0.5 nM final enzyme concentration, pre-warmed to 30°C), and this reaction mixture is added to the plate at 90 µL/well. Substrate hydrolysis is monitored for 300 seconds at 30°C using 385 and 460 nm excitation and emission filters, respectively. Triplicate curves are averaged, and slopes are evaluated by linear regression. To evaluate Ki, plots of percent inhibition vs inhibitor concentration are fit by non-linear regression to a reversible, competitive model: [formula] where the competition factor is (1 + [S]/KM) = 2.

For `CCOC1OC(=O)CC1NC(=O)C(CC(=O)NCCOc1ccccc1)C(C)C` (stereo not drawn) [Example 39, N^1-(2-Ethoxy-5-oxo-tetrahydro-furan-3-yl)-2-isopropyl-N^4-(2-phenoxyethyl)-succinamide], the IC50 (usually the concentration that gives 50% inhibition) in experiment [1] is 13200 nM; in experiment [2] it was 5 µM. The inhibition constant Ki – broadly, a measure of affinity in units of concentration, obtained from inhibition or displacement – in experiment [3] was 446 nM.
For the molecule `CCOC1OC(=O)CC1NC(=O)C(CC(=O)NCCCCc1ccccc1)C(C)C` (stereo not drawn) [Example 49, N^1-(2-Ethoxy-5-oxo-tetrahydro-furan-3-yl)-2-isopropyl-N^4-[4-(phenyl)-butyl]-succinamide], half-maximal inhibition in experiment [1] (IC50) required 123000 nM. In experiment [3], this molecule gave a Ki of 2150 nM.
For the molecule `CC(C)C(CC(=O)N(C)CCOc1ccccc1)C(=O)NC(C=O)CC(=O)O` (stereo not drawn) [Example 22, 3-(3-Methyl-2-{[methyl-(2-phenoxy-ethyl)-carbamoyl]-methyl}-butyrylamino)-4-oxo-butyric acid], the IC50 is 1670 nM in experiment [1] and 19 µM in experiment [2]. The same molecule had a Ki in experiment [3] of 133 nM.
Turning to `CC(C)[C@H](CC(=O)NCCOc1ccccc1)C(=O)NC(C=O)CC(=O)O` (stereo partly drawn) [Example 8], the IC50 came out at 540 nM in experiment [1] and 3.75 µM in experiment [2]. In addition, the Ki in experiment [3] was 15 nM.
Regarding `CCOC1OC(=O)CC1NC(=O)C(CC(=O)NCCn1ncc2ccccc21)C(C)C` (stereo not drawn) [Example 42, N^1-(2-Ethoxy-5-oxo-tetrahydro-furan-3-yl)-N^4-(2-indazol-1-yl-ethyl)-2-isopropyl-succinamide], the IC50 is 1730 nM in experiment [1] and 7.5 µM in experiment [2]. This molecule registered an inhibition constant (Ki) in experiment [3] of 191 nM.
With `CCOC1OC(=O)CC1NC(=O)C(CC(=O)NCCc1c[nH]c2ccc(F)cc12)C(C)C` (stereo not drawn) [Example 52, N^1-(2-Ethoxy-5-oxo-tetrahydro-furan-3-yl)-N^4-[2-(5-fluoro-1H-indol-3-yl)-ethyl]-2-isopropyl-succinamide], the IC50 in experiment [1] was found to be 486 nM; in experiment [2] it was 0.75 µM. Moreover, the Ki in experiment [3] was 18.5 nM.
In the same order, the values of `CCOC1OC(=O)CC1NC(=O)C(CC(=O)NCCn1cnc2ccccc21)C(C)C` (stereo not drawn) [Example 35, N^4-(2-Benzoimidazol-1-yl-ethyl)-N^1-(2-ethoxy-5-oxo-tetrahydro-furan-3-yl)-2-isopropyl-succinamide] are 1060 nM, 5.5 µM and 51.1 nM.
With `CCOC(=O)CC(C=O)NC(=O)C(CC(=O)NCCOc1ccccc1)C(C)C` (stereo not drawn) [Example 63, 3-{3-Methyl-2-[(2-phenoxy-ethylcarbamoyl)-methyl]-butyrylamino}-4-oxo-butyric acid ethyl ester], the IC50 in experiment [1] is 197000 nM; in experiment [2], 14.5 µM. For the same molecule, in experiment [3], the Ki came to 6920 nM.
On to `CCOC1OC(=O)CC1NC(=O)C(CC(=O)NCCc1c[nH]c2cc(OC)ccc12)C(C)C` (stereo not drawn) [Example 40, N^1-(2-Ethoxy-5-oxo-tetrahydro-furan-3-yl)-2-isopropyl-N^4-[2-(6-methoxy-1H-indol-3-yl)-ethyl]-succinamide], for which the IC50 in experiment [1] was 1150 nM; in experiment [2], 2.9 µM. The molecule further yielded a Ki in experiment [3] of 35.4 nM.
As to `CCOC1OC(=O)CC1NC(=O)C(CC(=O)NCCn1nnc2ccccc21)C(C)C` (stereo not drawn) [Example 41, N^4-(2-Benzotriazol-1-yl-ethyl)-N^1-(2-ethoxy-5-oxo-tetrahydro-furan-3-yl)-2-isopropyl-succinamide], the IC50 was found to be 13000 nM in experiment [1] and 17.5 µM in experiment [2]. In experiment [3], this molecule showed a Ki of 409 nM.
The molecule `CCOC(=O)CC(C#N)NC(=O)C(CC(=O)NCCOc1ccccc1)C(C)C` (stereo not drawn) [Example 64, 3-Cyano-3-{3-methyl-2-[(2-phenoxy-ethylcarbamoyl)-methyl]-butyrylamino}-propionic acid ethyl ester] showed an IC50 in experiment [2] greater than 100 µM. In experiment [3], this molecule showed a Ki greater than 100000 nM.
Consider `CCOC1OC(=O)CC1NC(=O)C(CC(=O)NCCc1ccccc1)C(C)C` (stereo not drawn) [Example 48, N^1-(2-Ethoxy-5-oxo-tetrahydro-furan-3-yl)-2-isopropyl-N^4-[2-(phenyl)-ethyl]-succinamide], for which the IC50 in experiment [1] worked out at 59900 nM; in experiment [2] it was 13.5 µM. This molecule showed a Ki in experiment [3] of 1010 nM.
In the case of `CCOC1OC(=O)CC1NC(=O)C(CC(=O)NCCNc1ccccc1)C(C)C` (stereo not drawn) [Example 43, N^1-(2-Ethoxy-5-oxo-tetrahydro-furan-3-yl)-2-isopropyl-N^4-(2-phenylamino-ethyl)-succinamide], the IC50 in experiment [1] was 2280 nM; in experiment [2] it was 7.5 µM. Further, the Ki in experiment [3] worked out at 98.1 nM.
For `CCOC1OC(=O)CC1NC(=O)C(CC(=O)NCCn1ccc2ccccc21)C(C)C` (stereo not drawn) [Example 50, N^1-(2-Ethoxy-5-oxo-tetrahydro-furan-3-yl)-N^4-(2-indol-1-yl-ethyl)-2-isopropyl-succinamide], the results for the half-inhibitory concentration (IC50) in experiment [1] and in experiment [2] were 924 nM and 2 µM, respectively. Further, in experiment [3], the affinity, expressed as Ki, was 53.8 nM.
For `COc1cc(CCCNC(=O)C[C@H](C(=O)NC(C=O)CC(=O)O)C(C)C)cc(OC)c1OC` (stereo partly drawn) [Example 62, 3-(3-methyl-2-{[3-(3,4,5-trimethoxy-pheny)-propylcarbamoyl]-methyl}-butyrylamino)-4-oxo-butyric acid], the IC50 in experiment [1] worked out at 2560 nM; in experiment [2], 23 µM. In experiment [3], this molecule displayed a Ki of 274 nM.
With `CCOC1OC(=O)CC1NC(=O)C(CC(=O)NCCc1c[nH]c2cc(F)ccc12)C(C)C` (stereo not drawn) [Example 44, N^1-(2-Ethoxy-5-oxo-tetrahydro-furan-3-yl)-N^4-[2-(6-fluoro-1H-indol-3-yl)-ethyl]-2-isopropyl-succinamide], the half-inhibitory concentration (IC50) is 1220 nM in experiment [1] and 2.5 µM in experiment [2]. This molecule showed a Ki in experiment [3] of 47.5 nM.
In the same order, the values of `CC(C)C(CC(=O)NCCCc1ccccc1)C(=O)NC(CC(=O)O)C(=O)COc1cc2ccccc2cc1-c1ncc[nH]1` (stereo not drawn) [Example 14, 5-[3-(1H-Imidazol-2-yl)-naphthalen-2-yloxy]-3-{3-methyl-2-[(3-phenyl-propylcarbamoyl)-methyl]-butyrylamino}-4-oxo-pentanoic acid] are 8.7 nM, 19 µM and 107 nM.
In the same order, the values of `CCOC1OC(=O)CC1NC(=O)[C@@H](CC(=O)NCCCc1ccccc1)C(C)C` (stereo partly drawn) [Example 51, N^1-(2-Ethoxy-5-oxo-tetrahydro-furan-3-yl)-2-isopropyl-N^4-[4-(phenyl)-propyl]-succinamide] are 15000 nM, 16.2 µM and 259 nM.
Regarding `CCOC1OC(=O)CC1NC(=O)C(CC(=O)NCCCc1cc(OC)c(OC)c(OC)c1)C(C)C` (stereo not drawn) [Example 47, N^1-(2-Ethoxy-5-oxo-tetrahydro-furan-3-yl)-2-isopropyl-N^4-[3-(3,4,5-trimethoxy-phenyl)-propyl]-succinamide], the IC50 is 112000 nM in experiment [1] and 11 µM in experiment [2]. The Ki in experiment [3] is 1930 nM.
`CC(C)C(CC(=O)NCCOc1ccccc1)C(=O)NC(C#N)CC(=O)O` (stereo not drawn) [Example 65, 3-Cyano-3-{3-methyl-2-[(2-phenoxy-ethylcarbamoyl)-methyl]-butyrylamino}-propionic acid] showed an IC50 in experiment [2] greater than 100 µM. The molecule further had a Ki in experiment [3] of 107000 nM.
